Test results from ChEMBL document CHEMBL1201862, “PubChem BioAssay data set” (2004).
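How tested: cells in 96-well plates exposed to compound for 48 hours at five concentrations. GI50 marks 50% less growth.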 Active and inactive are the calls of the source. No stated cut-off is given here; in the data, active = GI50 up to about 1.1 µM and inactive = higher.

Key:
Experiment in all cases: NCI anticancer screen, dose series, 48 h
IGROV-1 = system: IGROV-1
RXF 393 = system: RXF 393
UACC-62 = system: UACC-62
CAKI-1 = system: CAKI-1
EKVX = system: EKVX
NCI-H226 = system: NCI-H226
HCT-15 = system: HCT-15
MCF7 = system: MCF7
HT-29 = system: HT-29
OVCAR-8 = system: OVCAR-8
SF-268 = system: SF-268
A498 = system: A498
HOP-62 = system: HOP-62
SK-MEL-2 = system: SK-MEL-2
PC-3 = system: PC-3
SF-539 = system: SF-539
MOLT-4 = system: MOLT-4

Measured: GI50

O=C(O)C(Cc1cccs1)C(=O)O
> 100 µM: HCT-15
inactive: IGROV-1 > 100 µM | RXF 393 > 100 µM | UACC-62 > 100 µM | CAKI-1 > 100 µM | EKVX > 100 µM | NCI-H226 > 100 µM | MCF7 > 100 µM | HT-29 > 100 µM | OVCAR-8 > 100 µM | SF-268 > 100 µM | A498 > 100 µM | HOP-62 > 100 µM | SK-MEL-2 > 100 µM | PC-3 > 100 µM

O=C1NC(=S)N/C1=C\c1cccs1
> 100 µM: HCT-15
inactive: IGROV-1 > 100 µM | RXF 393 > 100 µM | UACC-62 > 100 µM | CAKI-1 > 100 µM | EKVX > 100 µM | SF-539 > 100 µM | NCI-H226 > 100 µM | MOLT-4 > 100 µM | MCF7 > 100 µM | HT-29 > 100 µM | OVCAR-8 > 100 µM | SF-268 > 100 µM | HOP-62 > 100 µM | SK-MEL-2 > 100 µM | PC-3 > 100 µM

O=P(c1ccccc1)(c1ccccc1)C(NCc1ccccc1)c1ccc(F)cc1 (stereo unspecified)
inactive: IGROV-1 15.5 µM | RXF 393 13.4 µM | UACC-62 13 µM | CAKI-1 17 µM | EKVX 12.7 µM | SF-539 17.7 µM | NCI-H226 16.2 µM | MOLT-4 14.2 µM | HT-29 13.2 µM | OVCAR-8 19 µM | SF-268 19.7 µM | A498 15.2 µM | HOP-62 21.6 µM | SK-MEL-2 15 µM
13.2 µM: HCT-15

CCC1(CC)C(=O)N(C(=O)c2ccc(Cl)cc2)N(C(=O)c2ccccc2Cl)C1=O
inactive: IGROV-1 3.5 µM | RXF 393 > 100 µM | UACC-62 85.3 µM | CAKI-1 > 100 µM | EKVX 4.58 µM | NCI-H226 16.2 µM | MOLT-4 20.6 µM | MCF7 43.1 µM | HT-29 10.7 µM | OVCAR-8 89.9 µM | SF-268 35.4 µM | HOP-62 46 µM | SK-MEL-2 > 100 µM | PC-3 > 100 µM
41 µM: HCT-15

O=C(O[C@H](/C=C/c1ccccc1)P1(=O)N(Cc2ccccc2)[C@H]2CCCC[C@@H]2N1Cc1ccccc1)c1ccccc1
inactive: IGROV-1 3.21 µM | UACC-62 5.33 µM | CAKI-1 2.17 µM | EKVX 4.56 µM | SF-539 3.72 µM | NCI-H226 2.33 µM | MCF7 3.51 µM | HT-29 3.8 µM | OVCAR-8 3.69 µM | SF-268 4.12 µM | A498 7.48 µM | HOP-62 5.51 µM | SK-MEL-2 2.39 µM | PC-3 3.58 µM
3.22 µM: HCT-15

COc1ccc(CNc2nc3cc(C(F)(F)F)ccc3nc2C(=O)O)cc1
inactive: IGROV-1 27.4 µM | UACC-62 21.9 µM | CAKI-1 35.8 µM | EKVX 23.6 µM | SF-539 23 µM | NCI-H226 40 µM | MOLT-4 21.8 µM | MCF7 25 µM | HT-29 24 µM | OVCAR-8 32.3 µM | A498 21.5 µM | HOP-62 21.4 µM | SK-MEL-2 23.1 µM | PC-3 31.2 µM
22.6 µM: HCT-15

CC(ON1[C@](C)(c2ccccc2)CC[C@@]1(C)c1ccccc1)c1ccccc1 (stereo partly specified)
inactive: IGROV-1 52 µM | RXF 393 20.4 µM | CAKI-1 37.8 µM | EKVX 23.8 µM | SF-539 > 100 µM | NCI-H226 40.9 µM | MOLT-4 16.2 µM | HT-29 31.2 µM | OVCAR-8 48.2 µM | SF-268 58.5 µM | HOP-62 83.4 µM | SK-MEL-2 20 µM | PC-3 39.2 µM
> 100 µM: HCT-15

CC1CC/C(=C\c2ccc(F)cc2)C2=C1C(c1ccc(F)cc1)n1c(s/c(=C\c3ccc(Cl)cc3)c1=O)=N2 (stereo unspecified)
inactive: IGROV-1 > 100 µM | RXF 393 > 100 µM | UACC-62 > 100 µM | CAKI-1 > 100 µM | EKVX > 100 µM | MOLT-4 > 100 µM | MCF7 > 100 µM | HT-29 > 100 µM | OVCAR-8 > 100 µM | SF-268 > 100 µM | A498 > 100 µM | HOP-62 > 100 µM | SK-MEL-2 > 100 µM | PC-3 > 100 µM
> 100 µM: HCT-15

CC1=C(C(=O)NC2CCCCC2)CC(C(=O)NC2CCCCC2)=C(C)N1
> 100 µM: HCT-15
inactive: IGROV-1 > 100 µM | RXF 393 > 100 µM | UACC-62 > 100 µM | CAKI-1 > 100 µM | EKVX > 100 µM | SF-539 > 100 µM | MOLT-4 > 100 µM | MCF7 > 100 µM | SF-268 39.9 µM | A498 65.9 µM | HOP-62 > 100 µM | SK-MEL-2 > 100 µM | PC-3 77.4 µM

COC1/C=C(C)/C=C/C(C)/C=C/C(=O)OC(/C(C)=C/C=C(\C)CNC(=O)[C@H](CO)NC=O)C(C)/C=C/C=C/C(OC)CC/C=C(C)/C=C/C1 (stereo partly specified)
active: IGROV-1 0.262 µM | RXF 393 0.158 µM | UACC-62 0.0251 µM | CAKI-1 0.0706 µM | EKVX 0.139 µM | SF-539 0.0281 µM | MOLT-4 0.0206 µM | MCF7 0.052 µM | HT-29 0.0125 µM | OVCAR-8 0.0399 µM | SF-268 0.113 µM | A498 > 1 µM | HOP-62 0.0224 µM | SK-MEL-2 0.0341 µM | PC-3 0.0264 µM
0.111 µM: HCT-15

Oc1ccc2ccccc2c1OCc1nnc(CCCCCCCCc2nnc(COc3c(O)ccc4ccccc34)o2)o1
inactive: IGROV-1 > 100 µM | RXF 393 > 100 µM | UACC-62 > 100 µM | CAKI-1 67 µM | EKVX > 100 µM | NCI-H226 > 100 µM | MOLT-4 92.3 µM | MCF7 59.2 µM | HT-29 > 100 µM | SF-268 99.3 µM | A498 > 100 µM | SK-MEL-2 > 100 µM | PC-3 > 100 µM
> 100 µM: HCT-15

N#CC(C#N)=C1C(C#N)=C(N)NC12OCCO2
> 100 µM: HCT-15
inactive: IGROV-1 > 100 µM | RXF 393 > 100 µM | UACC-62 > 100 µM | CAKI-1 > 100 µM | EKVX > 100 µM | NCI-H226 > 100 µM | MOLT-4 > 100 µM | MCF7 > 100 µM | HT-29 > 100 µM | OVCAR-8 > 100 µM | SF-268 > 100 µM | A498 > 100 µM | HOP-62 > 100 µM | SK-MEL-2 > 100 µM | PC-3 > 100 µM

CN1N=C(c2ccncc2)OC1c1ccc(Cl)cc1Cl (stereo unspecified)
inactive: IGROV-1 > 100 µM | RXF 393 > 100 µM | UACC-62 22.8 µM | EKVX 41.7 µM | SF-539 44.5 µM | NCI-H226 29.2 µM | MOLT-4 42 µM | MCF7 > 100 µM | HT-29 59.2 µM | OVCAR-8 > 100 µM | SF-268 > 100 µM | A498 49.9 µM | HOP-62 > 100 µM | SK-MEL-2 > 100 µM | PC-3 63.1 µM
> 100 µM: HCT-15

CC#CCCCC1(C)CCNC1=S (stereo unspecified)
> 10 µM: HCT-15
inactive: RXF 393 > 10 µM | EKVX > 10 µM | SF-539 > 10 µM | NCI-H226 > 10 µM | MOLT-4 > 10 µM | MCF7 > 10 µM | HT-29 > 10 µM | OVCAR-8 > 10 µM | SF-268 > 10 µM | SK-MEL-2 > 10 µM | PC-3 > 10 µM

CCOC(=O)C(Cl)(NC(=O)c1c(F)c(F)c(F)c(F)c1F)C(F)(F)F (stereo unspecified)
> 100 µM: HCT-15
inactive: IGROV-1 > 100 µM | RXF 393 > 100 µM | UACC-62 > 100 µM | CAKI-1 20 µM | EKVX 75.9 µM | SF-539 > 100 µM | NCI-H226 > 100 µM | MOLT-4 > 100 µM | MCF7 > 100 µM | HT-29 > 100 µM | OVCAR-8 > 100 µM | SF-268 > 100 µM | HOP-62 > 100 µM | SK-MEL-2 > 100 µM | PC-3 > 100 µM

CS/C=C\C(=O)O[C@H]1C[C@@H]2[C@@H](O)c3occ(C)c3C[C@]2(C)[C@@H](C)C1
30.1 µM: HCT-15
inactive: IGROV-1 20.4 µM | RXF 393 22.9 µM | UACC-62 17.9 µM | CAKI-1 39.7 µM | EKVX 37.5 µM | SF-539 21.7 µM | NCI-H226 13.4 µM | MOLT-4 20.7 µM | MCF7 31.9 µM | HT-29 22.6 µM | OVCAR-8 22.6 µM | SF-268 28 µM | HOP-62 23.2 µM | PC-3 41.2 µM

CC(C)C1=CC2=C(C(=O)C1=O)C13CCCC(C)(C)C1CC2OC3=O (stereo unspecified)
inactive: IGROV-1 17.3 µM | UACC-62 13.4 µM | CAKI-1 17.9 µM | EKVX 16.2 µM | SF-539 20.7 µM | NCI-H226 18.6 µM | MOLT-4 6.11 µM | MCF7 22.3 µM | HT-29 12.5 µM | OVCAR-8 19.2 µM | SF-268 22 µM | A498 27.2 µM | SK-MEL-2 21.7 µM | PC-3 24.2 µM
12.8 µM: HCT-15

CN(C)Cc1cc(C(=O)/C=C/c2ccc(F)cc2)cc(CN(C)C)c1O
inactive: IGROV-1 22.4 µM | RXF 393 12.9 µM | UACC-62 3.14 µM | CAKI-1 18.7 µM | EKVX 35.6 µM | SF-539 21.1 µM | NCI-H226 38.6 µM | MOLT-4 19.5 µM | MCF7 16.2 µM | HT-29 23 µM | OVCAR-8 21.4 µM | SF-268 22.8 µM | A498 24.5 µM | HOP-62 21.6 µM | PC-3 27.5 µM
7.78 µM: HCT-15

Nc1ccc(-c2nn3c(COc4ccc(Cl)cc4)nnc3s2)cc1
> 100 µM: HCT-15
inactive: IGROV-1 > 100 µM | RXF 393 49.3 µM | UACC-62 > 100 µM | CAKI-1 54.2 µM | EKVX 86.9 µM | MOLT-4 51.3 µM | HT-29 > 100 µM | OVCAR-8 > 100 µM | SK-MEL-2 > 100 µM | PC-3 88.7 µM
